Consider 8 compounds from patent US11716992B2, “5A5B6C tricyclic spirolactone derivative, preparation method therefor and use thereof” (NANKAI UNIVERSITY, priority 2017, dated 2023).

In data set [1] the test system is Mythimna separate (Walker). In words: Insecticidal activity against Mythimna separate (Walker). The data set is classed as in vivo. Conditions: Mythimna, 100 μg/mL; read-out: insecticidal activity, Mythimna separate (Walker).
For data set [2], the system named is Helicoverpa armigera (Hübner). Briefly: Insecticidal activity against Helicoverpa armigera (Hübner). The data set is classed as in vivo. Conditions: Helicoverpa armigera; 100 μg/mL; read-out: insecticidal activity, Helicoverpa armigera (Hübner).
The test system of the next data set is Ostrinia furnacalis. Briefly: Insecticidal activity against Ostrinia furnacalis. The data set is classed as in vivo. Conditions: Ostrinia furnacalis; 100 μg/mL; read-out: insecticidal activity, Ostrinia furnacalis.
In another data set the test system is Alternaria solani. Briefly: Fungicidal activity, fungicide growth rate method, AS. It counts as cell-based. Particulars: 50 μg/mL; for inhibition at 50 µg/mL: Alternaria solani, read-out: fungicidal activity (growth inhibition rate), AS.
The test system of a further data set is Botrytis cinerea. In words: Fungicidal activity, fungicide growth rate method, BC. The data set is classed as cell-based. Particulars: 50 μg/mL; for inhibition at 50 µg/mL: Botrytis cinerea, read-out: fungicidal activity (growth inhibition rate), BC.
In a further data set the test system is Cercospora arachidicola. In words: Fungicidal activity, fungicide growth rate method, CA. The data set is classed as cell-based. Particulars: 50 μg/mL; for inhibition at 50 µg/mL: Mycosphaerella arachidis, read-out: fungicidal activity (growth inhibition rate), CA.
The test system of a further data set is wheat Gibberella zeae. Briefly: microbe, parasite or virus in culture. Particulars: for inhibition at 50 µg/mL: Fusarium graminearum, read-out: fungicidal activity (growth inhibition rate), GZ, 50 μg/mL. The data set is classed as cell-based.
For data set [3], the system named is Phytophthora infestans (Mont.) de Bary. In words: microbe, parasite or virus in culture. It counts as cell-based. Conditions: Phytophthora infestans, read-out: fungicidal activity (growth inhibition rate), PI, 50 μg/mL.
The next data set relates to Physalospora piricola. In words: Fungicidal activity, fungicide growth rate method, PP. The data set is classed as cell-based. Particulars: 50 μg/mL; for inhibition at 50 µg/mL: read-out: fungicidal activity (growth inhibition rate), PP.
The test system of a further data set is Pellicularia sasakii. In words: Fungicidal activity, fungicide growth rate method, PS. The data set is classed as cell-based. Particulars: 50 μg/mL; for inhibition at 50 µg/mL: read-out: fungicidal activity (growth inhibition rate), PS.
Another data set concerns Rhizoctonia cerealis. Briefly: Fungicidal activity, fungicide growth rate method, RC. The data set is classed as cell-based. Particulars: Ceratobasidium cereale, 50 μg/mL; read-out: fungicidal activity (growth inhibition rate), RC.
A further data set has as its system Sclerotinia sclerotiorum. In words: Fungicidal activity, fungicide growth rate method, SS. The data set is classed as cell-based. Particulars: 50 μg/mL; for inhibition at 50 µg/mL: Sclerotinia sclerotiorum.
A further data set has as its system Tobacco Mosaic Virus. Briefly: Anti-TMV inactivation activity on tobacco plants. The arrangement: concentration or dose not given beside the values. It counts as in vivo. Conditions: compound mixed with TMV solution 30 minutes, lesions checked three days later.
The subject of another data set is Caenorhabditis elegans. Briefly: Insecticidal activity against Caenorhabditis elegans. It counts as in vivo. Particulars: 100 μg/mL; for pest or weed control at 100 µg/mL: Caenorhabditis elegans, read-out: insecticidal activity, Caenorhabditis elegans.
Data set [4] has as its system Apis mellifera ligustica Spin. Conditions: for Death number after 24 h / Death number after 48 h: per replicate of 10 bees.

Several values for one entry are separate records, joined by “and”; a condition that tells them apart may be missing. Equal entries are not always repeated. Where two headings read alike, the source gives them in different places.

As usually defined, the melting point is the temperature, or range, at which the solid turns liquid.

`C=CC[C@@H]1C[C@]2(O)CCO[C@@]23C[C@@H](O)[C@H](Cl)C[C@H]13` [Zyj07-101]: the melting point was in the range of 143 to 144 °C. In addition, the pest or weed control at 100 µg/mL in data set [1] was above 30%. Further, in [2], the pest or weed control at 100 µg/mL was 20%. Further, in the data set with Ostrinia furnacalis, the pest or weed control at 100 µg/mL came to 15%. Besides, in the data set on Alternaria solani, the inhibition at 50 µg/mL came out at 5%. The inhibition at 50 µg/mL with Botrytis cinerea is above 50%. The inhibition at 50 µg/mL in the data set on Cercospora arachidicola was 14%. Moreover, in the data set on wheat Gibberella zeae, the inhibition at 50 µg/mL came out at 3%. Besides, the inhibition at 50 µg/mL in data set [3] was above 60%. The inhibition at 50 µg/mL in the data set on Physalospora piricola was above 50%. Also, the inhibition at 50 µg/mL in the data set on Pellicularia sasakii was 0%. Also, in the data set on Rhizoctonia cerealis, the inhibition at 50 µg/mL is 29%.

On to `C=CC[C@@H]1C[C@]2(O)CCO[C@@]23C[C@@H](Cl)[C@H](O)C[C@H]13` [Zyj07-100], for which the melting point lay within 134 to 136 °C. In [1], the pest or weed control at 100 µg/mL is 10%. For the same compound, the pest or weed control at 100 µg/mL in [2] was 0%. Besides, the pest or weed control at 100 µg/mL with Ostrinia furnacalis is 0%. In the data set on Alternaria solani, the inhibition at 50 µg/mL came to 14%. The inhibition at 50 µg/mL with Botrytis cinerea worked out at 14%. Also, the inhibition at 50 µg/mL with Cercospora arachidicola is 46%. Further, in the data set with wheat Gibberella zeae, the inhibition at 50 µg/mL worked out at 13%. The inhibition at 50 µg/mL in [3] came out at 38%. Further, the inhibition at 50 µg/mL with Physalospora piricola was found to be 29%. Moreover, the inhibition at 50 µg/mL in the data set with Pellicularia sasakii was 23%. Besides, in the data set with Rhizoctonia cerealis, the inhibition at 50 µg/mL was determined as 0%.

For the compound `O=C1C[C@@]2(O)CC[C@H]3C[C@@H]4O[C@@H]4C[C@@]32O1` [Zyj07-102], the melting point is 119 to 120 °C. The pest or weed control at 100 µg/mL in [1] was determined as 0%. For the same compound, the pest or weed control at 100 µg/mL in data set [2] came out at 0%. Moreover, the pest or weed control at 100 µg/mL in the data set with Ostrinia furnacalis came out at 0%. The inhibition at 50 µg/mL with Alternaria solani amounted to 0%. In the data set with Botrytis cinerea, the inhibition at 50 µg/mL was found to be 41%. In addition, the inhibition at 50 µg/mL in the data set with Cercospora arachidicola was 14%. For the same compound, in the data set with wheat Gibberella zeae, the inhibition at 50 µg/mL was 27%. In data set [3], the inhibition at 50 µg/mL turned out to be 23%. In the data set with Physalospora piricola, the inhibition at 50 µg/mL came to 42%. Besides, the inhibition at 50 µg/mL in the data set on Pellicularia sasakii was determined as 0%. Moreover, the inhibition at 50 µg/mL in the data set with Rhizoctonia cerealis came out at 0%. The same compound returned an inhibition at 50 µg/mL in the data set on Sclerotinia sclerotiorum of 0%. In the data set with Tobacco Mosaic Virus, the “TMV inactivation (anti-TMV activity)” value was 14%.

As to `C=CC[C@@H]1C[C@]2(O)C[C@H](O[C@]34CCO[C@@]35CC=CC[C@H]5[C@H](CC=C)C4)O[C@@]23CC=CC[C@H]13` [Zyj07-30-1], the pest or weed control at 100 µg/mL (in data set [1]; in data set [2]; with Ostrinia furnacalis) was 0% each time. Besides, the “insecticidal activity, Caenorhabditis elegans” value in the data set on Caenorhabditis elegans came to 5%. Moreover, in the data set with Alternaria solani, the “fungicidal activity (growth inhibition rate), AS” value worked out at 14%. Also, the “fungicidal activity (growth inhibition rate), BC” value with Botrytis cinerea is on record as 5%. The “fungicidal activity (growth inhibition rate), CA” value in the data set with Cercospora arachidicola turned out to be 41%. Besides, the “fungicidal activity (growth inhibition rate), GZ” value in the data set with wheat Gibberella zeae (50 μg/mL) is 0%. The inhibition at 50 µg/mL in data set [3] was 21%; in the data set on Rhizoctonia cerealis, 0%. Moreover, the “fungicidal activity (growth inhibition rate), PP” value with Physalospora piricola is 83%. Moreover, in the data set with Pellicularia sasakii, the “fungicidal activity (growth inhibition rate), PS” value is on record as 22%. Further, in the data set with Sclerotinia sclerotiorum, the “fungicidal activity (growth inhibition rate), SS” value is recorded as 95%. The “TMV inactivation (anti-TMV activity)” value in the data set with Tobacco Mosaic Virus came out at 8%. Besides, the results for the “Death rate after 48 h (%)” value in data set [4] (dosage 5.12 μg a.i./bee) and in data set [4] (dosage 10.6 μg a.i./bee) were 0% and 5.0%, respectively. The “Death number after 24 h” value in data set [4] (dosage 5.12 μg a.i./bee) and in data set [4] (dosage 10.6 μg a.i./bee) was 0 in each case. For the same compound, the “Death number after 48 h” value in data set [4] (dosage 5.12 μg a.i./bee) was 0; in data set [4] (dosage 10.6 μg a.i./bee), 0 and 1.

As for `CCOC(=O)C(C(=O)OCC)C1CC(=O)[C@@]2(O)CC=CC[C@H]12` (stereo partly shown) [Zyj06-113-2], the pest or weed control at 100 µg/mL was found to be 20% in data set [1], 5% in data set [2], 15% with Ostrinia furnacalis and 7% in the data set on Caenorhabditis elegans. Besides, the inhibition at 50 µg/mL is 3% with Alternaria solani; above 50% in the data set on Botrytis cinerea; 24% with Cercospora arachidicola; 0% in the data set on wheat Gibberella zeae; 40% in [3]; 26% with Physalospora piricola. The inhibition at 50 µg/mL turned out to be 25% in the data set on Pellicularia sasakii, 0% in the data set with Rhizoctonia cerealis and 36% in the data set on Sclerotinia sclerotiorum. The “TMV inactivation (anti-TMV activity)” value in the data set on Tobacco Mosaic Virus turned out to be 28%. Also, the entries for the “Death rate after 48 h (%)” value in data set [4] (dosage 9.69 μg a.i./bee) and in data set [4] (dosage 12.6 μg a.i./bee) were 10.0% and 15.0%, respectively. The “Death number after 24 h” value in data set [4] (dosage 9.69 μg a.i./bee) and in data set [4] (dosage 12.6 μg a.i./bee) was 0 in each case. Besides, the “Death number after 48 h” value in data set [4] (dosage 9.69 μg a.i./bee) was 0 and 2; in data set [4] (dosage 12.6 μg a.i./bee) it was 1 and 2.

Compound `C=CC[C@@H]1C[C@@]2(OC(C)=O)C[C@@H](CC=C)[C@H]3C[C@@H]4O[C@@H]4C[C@@]32O1` [Zyj07-67-2] came in with a melting point of 100 to 102 °C. In data set [1], the pest or weed control at 100 µg/mL turned out to be 0%. Moreover, in [2], the pest or weed control at 100 µg/mL amounted to 0%. In addition, the pest or weed control at 100 µg/mL in the data set on Ostrinia furnacalis was determined as 0%. Besides, the pest or weed control at 100 µg/mL in the data set with Caenorhabditis elegans stood at 20%. In the data set with Alternaria solani, the inhibition at 50 µg/mL amounted to 0%. In the data set on Botrytis cinerea, the inhibition at 50 µg/mL was above 50%. Moreover, the inhibition at 50 µg/mL with Cercospora arachidicola came out at 24%. In the data set with wheat Gibberella zeae, the inhibition at 50 µg/mL stood at 0%. In addition, in data set [3], the inhibition at 50 µg/mL worked out at 25%. Further, the inhibition at 50 µg/mL in the data set with Physalospora piricola stood at 13%. The inhibition at 50 µg/mL with Pellicularia sasakii turned out to be 36%. Also, the inhibition at 50 µg/mL with Rhizoctonia cerealis was 29%. In addition, in the data set with Sclerotinia sclerotiorum, the inhibition at 50 µg/mL was above 50%. Also, the “TMV inactivation (anti-TMV activity)” value in the data set on Tobacco Mosaic Virus was 29%.

As for `C=CC[C@@H]1C[C@]2(O)C(C(=O)OCC)C(=O)O[C@@]23CC=CC[C@H]13` (stereo partly shown) [Zyj06-180], the pest or weed control at 100 µg/mL in [1] was 20%; in [2] it was 5%; with Ostrinia furnacalis, 0%; in the data set on Caenorhabditis elegans, 22%. Also, the inhibition at 50 µg/mL in the data set on Alternaria solani was 14%; with Botrytis cinerea, above 50%; with Cercospora arachidicola it was 30%; in the data set on wheat Gibberella zeae, 20%; in data set [3] it was 19%; in the data set on Physalospora piricola, 15%. Also, the inhibition at 50 µg/mL is 45% in the data set with Pellicularia sasakii, 0% in the data set on Rhizoctonia cerealis and above 50% with Sclerotinia sclerotiorum. Further, the “TMV inactivation (anti-TMV activity)” value in the data set with Tobacco Mosaic Virus is given as 5%. In addition, the “Death rate after 48 h (%)” value in data set [4] (dosage 10.6 μg a.i./bee) amounted to 5.0%. The “Death number after 24 h” value in [4] (dosage 10.6 μg a.i./bee) is 1 and 0. Moreover, the “Death number after 48 h” value in data set [4] (dosage 10.6 μg a.i./bee) was 1 and 0.

For `C=CC[C@@H]1C[C@]2(O)CCO[C@@]23C[C@H]2O[C@H]2C[C@H]13` [Zyj07-31-2], the pest or weed control at 100 µg/mL in [1] was above 30%; in [2], 0%; with Ostrinia furnacalis it was 0%; in the data set with Caenorhabditis elegans it was 8%. Besides, the inhibition at 50 µg/mL in the data set with Alternaria solani was 22%; with Botrytis cinerea it was 18%; with Cercospora arachidicola, 27%; in the data set with wheat Gibberella zeae, 3%; in data set [3], 21%; with Physalospora piricola, 31%. In addition, the inhibition at 50 µg/mL was 18% in the data set on Pellicularia sasakii, 21% in the data set on Rhizoctonia cerealis and above 50% in the data set on Sclerotinia sclerotiorum. Besides, in the data set on Tobacco Mosaic Virus, the “TMV inactivation (anti-TMV activity)” value was determined as 15%. The “Death rate after 48 h (%)” value amounted to 0% in data set [4] (dosage 6.51 μg a.i./bee) and 10.0% in [4] (dosage 9.36 μg a.i./bee). The “Death number after 24 h” value in [4] (dosage 6.51 μg a.i./bee) and in data set [4] (dosage 9.36 μg a.i./bee) was 0 each time. Also, the entries for the “Death number after 48 h” value in data set [4] (dosage 6.51 μg a.i./bee) and in [4] (dosage 9.36 μg a.i./bee) were 0 and 1, respectively.
